Data on one compound can be found in patent US20120315654A1, “COMPOSITIONS AND METHODS FOR DETECTING CARDIOTOXICITY” (DUKE UNIVERSITY, priority 2011, published 2012).

Data set [1] relates to HL-1 cells. In words: Caspase 3/7 apoptosis assay in HL-1 cells. The class given is cell-based, murine. The settings on record: HL-1, 100 nmol/L DOX, up to 48 hrs. On the procedure: Apoptosis was measured using PROMEGA's CASPASE-GLO 3/7 ASSAY SYSTEM (PROMEGA). Briefly, attached cells in a single 24-well plate were washed 3 times with ice-cold PBS and resuspended in 500 μl of 1% TRITON-X100; 10% glycerol; 2 mmol/L EDTA; 137 mmol/L NaCl; and 20 mmol/L Tris, pH 8.0. A mixture of 25 μL of lysate and 25 μL of caspase 3/7-assay reagent was prepared, and sequential luminescent readings were taken every 15 min for 4 hrs. Peak signal readings were normalized to protein content and plotted.

In data set [2] the test system is RNCM. The experiment in a line: LDH release cytotoxicity assay in RNCM. The class given is cell-based, rat. The protocol:
Toxicity was assessed by quantifying the amount of lactate dehydrogenase (LDH) present in the culture media using PROMEGA's CYTOTOX96 NON-RADIOACTIVE ASSAY (PROMEGA, Madison, Wis.). Maximum cytotoxicity was determined by measuring the amount of LDH released in cells incubated with the kit's lysis buffer. The percentage of LDH released after DOX treatment was compared with that of controls.
In general terms: Release of lactate dehydrogenase indicates damage to the cell membrane.

In data set [3] the test system is cell-surface CrT protein. In words: Cell-surface CrT protein by biotin labeling, avidin isolation and Western blot (4B9). In kind it is cell-based, human. The conditions noted are these: HL-1 cultures, 100 nmol/L DOX. On the procedure:
HL-1 cells expressing CrT protein were lysed in an ice-cold solution of 150 mmol/L NaCl; 1% Triton X-100; and 50 mmol/L Tris-HCl, pH 7.4, supplemented with protease (COMPLETE MINI protease inhibitors, ROCHE, Indianapolis, Ind.) and phosphatase inhibitors (5 mmol/L NaF; 1 mmol/L phenylmethylsulphonylfluoride; 2.5 mmol/L Na2P2O7; 50 mmol/L β-glycerol; and 1 mmol/L […], Sigma). Insoluble material was separated by centrifugation at 100,000×g for 30 min at 4° C. Solubilized protein (25 μg per lane) was mixed with Laemmli buffer containing 10% β-mercaptoethanol, separated by SDS-PAGE on a 7% gel for studies of the CrT, and then transferred to nitrocellulose membranes. […] The TATA box-binding protein band was used as a loading control and was detected using a mouse monoclonal antibody (ABCAM, Cambridge, Mass.). […] Protein abundance was quantitated by densitometry using the IMAGEJ application from NIH, and normalized to the signal obtained from CrT protein isolated from cells grown in normal culture media.
HL-1 cultures were grown in 75 cm^2 plates and transiently transfected as described for human CrT cDNA. […] Cell surface CrT protein fraction (biotinylated CrT) was then analyzed by Western blotting using an anti-CrT antibody as described above.
On the technique in general: A western blot detects proteins with antibodies after separation by electrophoresis.

For data set [4] the following is noted: cited from earlier work.

For the compound `COc1cccc2c1C(=O)c1c(O)c3c(c(O)c1C2=O)C[C@@](O)(C(=O)CO)C[C@@H]3O[C@H]1C[C@H](N)[C@H](O)[C@H](C)O1` [DOX, Doxorubicin], the “Apoptosis (caspase 3/7 activation)” value in data set [1] is listed as “No increase”. Besides, the LDH release entry in data set [2] (50 nmol/L DOX, through 48 hrs) was “not significantly elevated”. For the same compound, in data set [2] (100 nmol/L DOX, 36 hrs), the “Increase in LDH release compared with control” value is given as 7%. In addition, in data set [3], the “Amount of CrT at the cell surface” value is “decreased”. Besides, in data set [4], the “Average steady-state concentration typically measured in patient plasma” value is listed as 100 nmol/L.
